# Laboratory results taken from US20250084061A1, “SULFONYL FUNCTIONAL COMPOUND, METHODS AND USES THEREOF” (Hubei Biopesticide Engineering Research Centre, priority 2023, published 2025).
# Like-named read-outs stand apart in the source and are kept apart here.
# Legend:
# Heliothis armigera = test: Insecticidal activity, artificial feed surface coating method; format: in vivo; settings: Helicoverpa armigera, read-out: Insecticidal activity (mortality rate grade) Heliothis armigera
# Outline: (§1)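 Artificial diet in 24-well plates, surface-coated with test solution at 500, 250 and 125 mg/L. Each concentration was tested in two replicates (Rep1, Rep2).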
# Plutella xylostella = test: as above; format: in vivo; settings: Plutella xylostella, read-out: Insecticidal activity (mortality rate grade) Plutella xylostella
# Outline: as §1
# Aphiscraccivora = test: Insecticidal activity, dipping method; format: in vivo
# Outline: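 Aphids tested by dipping in ethanol-dissolved compound diluted to 500, 250 or 125 mg/L with 0.1 mL/L Tween-80, two replicates plus blank control. Mortality scored on a 0/3/5/7/9 scale for 0–30, 30–50, 50–70, 70–90 and 90–100%.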
# [1] = tested on: Verticillium dahliae.kieb.; test: Bactericidal (fungicidal) activity by microdilution; format: cell-based
# Fusarium culmorum = test: as above; format: cell-based
# [2] = tested on: Fusarium oxysporum f. sp. Niveum; test: as above; format: cell-based
# Thanatephorus cucumeris = test: as above; format: cell-based
# Septoria nodorum Berk. = test: as above; format: cell-based
# Botrytis cinerea = test: as above; format: cell-based
# Leptosphaeria biglobosa = test: as above; format: cell-based
# Alternaria kikuchiana = test: as above; format: cell-based
# [3] = tested on: Corynespora leaf spot of tomato; test: as above; format: cell-based
# Rhizoctonia solani = test: as above; format: cell-based
# [4] = tested on: Colletotrichum gloeobosporioids; test: as above; format: cell-based
# Pythium aphanidermatum = test: as above; format: cell-based
# Magnaporthe oryzae = format: cell-based
structure (smiles),measurement,setting,value
COC(=O)Nc1nc2ccccc2n1CCCCS(=O)(=O)O [III-3],mortality at 125 µg/mL,Heliothis armigera; 125 mg/L test solution,0 to 30%
same,mortality at 250 µg/mL,Heliothis armigera; 250 mg/L test solution,0 to 30%
same,mortality at 500 µg/mL,Heliothis armigera; 500 mg/L test solution,0 to 30%
same,mortality at 125 µg/mL,Plutella xylostella; 125 mg/L test solution,0 to 30%
same,mortality at 250 µg/mL,Plutella xylostella; 250 mg/L test solution,0 to 30%
same,mortality at 500 µg/mL,Plutella xylostella; 500 mg/L test solution,0 to 30%
same,Insecticidal activity (mortality rate grade) Aphiscraccivora,Aphiscraccivora; 125 mg/L test solution,0 (mortality rate of 0˜30%)
same,Insecticidal activity (mortality rate grade) Aphiscraccivora,Aphiscraccivora; 250 mg/L test solution,0 (mortality rate of 0˜30%)
same,Insecticidal activity (mortality rate grade) Aphiscraccivora,Aphiscraccivora; 500 mg/L test solution,0 (mortality rate of 0˜30%)
same,Fungicidal activity (antibacterial rate grade) Verticillium dahliae. kieb.,[1]; 12.5 mg/L,9 (The antibacterial rate of 90˜100% could be set as 9 if the target has totally no growth)
same,Fungicidal activity (antibacterial rate grade) Verticillium dahliae. kieb.,[1]; 25 mg/L,9 (The antibacterial rate of 90˜100% could be set as 9 if the target has totally no growth)
same,Fungicidal activity (antibacterial rate grade) Verticillium dahliae. kieb.,[1]; 50 mg/L,9 (The antibacterial rate of 90˜100% could be set as 9 if the target has totally no growth)
same,Fungicidal activity (antibacterial rate grade) Verticillium dahliae. kieb.,[1]; 100 mg/L,9 (The antibacterial rate of 90˜100% could be set as 9 if the target has totally no growth)
same,Fungicidal activity (antibacterial rate grade) Fusarium culmorum,Fusarium culmorum; 12.5 mg/L,7 (The antibacterial rate of 70˜90% could be set as 7 if the target has small amounts of growth)
same,Fungicidal activity (antibacterial rate grade) Fusarium culmorum,Fusarium culmorum; 25 mg/L,9 (The antibacterial rate of 90˜100% could be set as 9 if the target has totally no growth)
same,Fungicidal activity (antibacterial rate grade) Fusarium culmorum,Fusarium culmorum; 50 mg/L,9 (The antibacterial rate of 90˜100% could be set as 9 if the target has totally no growth)
same,Fungicidal activity (antibacterial rate grade) Fusarium culmorum,Fusarium culmorum; 100 mg/L,9 (The antibacterial rate of 90˜100% could be set as 9 if the target has totally no growth)
same,Fungicidal activity (antibacterial rate grade) Fusarium oxysporum f. sp. Niveum,[2]; 12.5 mg/L,9 (The antibacterial rate of 90˜100% could be set as 9 if the target has totally no growth)
same,Fungicidal activity (antibacterial rate grade) Fusarium oxysporum f. sp. Niveum,[2]; 25 mg/L,9 (The antibacterial rate of 90˜100% could be set as 9 if the target has totally no growth)
same,Fungicidal activity (antibacterial rate grade) Fusarium oxysporum f. sp. Niveum,[2]; 50 mg/L,9 (The antibacterial rate of 90˜100% could be set as 9 if the target has totally no growth)
same,Fungicidal activity (antibacterial rate grade) Fusarium oxysporum f. sp. Niveum,[2]; 100 mg/L,9 (The antibacterial rate of 90˜100% could be set as 9 if the target has totally no growth)
same,Fungicidal activity (antibacterial rate grade) Thanatephorus cucumeris,Thanatephorus cucumeris; 12.5 mg/L,9 (The antibacterial rate of 90˜100% could be set as 9 if the target has totally no growth)
same,Fungicidal activity (antibacterial rate grade) Thanatephorus cucumeris,Thanatephorus cucumeris; 25 mg/L,9 (The antibacterial rate of 90˜100% could be set as 9 if the target has totally no growth)
same,Fungicidal activity (antibacterial rate grade) Thanatephorus cucumeris,Thanatephorus cucumeris; 50 mg/L,9 (The antibacterial rate of 90˜100% could be set as 9 if the target has totally no growth)
same,Fungicidal activity (antibacterial rate grade) Thanatephorus cucumeris,Thanatephorus cucumeris; 100 mg/L,9 (The antibacterial rate of 90˜100% could be set as 9 if the target has totally no growth)
same,Fungicidal activity (antibacterial rate grade) Septoria nodorum Berk.,Septoria nodorum Berk.; 12.5 mg/L,9 (The antibacterial rate of 90˜100% could be set as 9 if the target has totally no growth)
same,Fungicidal activity (antibacterial rate grade) Septoria nodorum Berk.,Septoria nodorum Berk.; 25 mg/L,9 (The antibacterial rate of 90˜100% could be set as 9 if the target has totally no growth)
same,Fungicidal activity (antibacterial rate grade) Septoria nodorum Berk.,Septoria nodorum Berk.; 50 mg/L,9 (The antibacterial rate of 90˜100% could be set as 9 if the target has totally no growth)
same,Fungicidal activity (antibacterial rate grade) Septoria nodorum Berk.,Septoria nodorum Berk.; 100 mg/L,9 (The antibacterial rate of 90˜100% could be set as 9 if the target has totally no growth)
same,Fungicidal activity (antibacterial rate grade) Botrytis cinerea,Botrytis cinerea; 12.5 mg/L,3 (The antibacterial rate of 0˜30% could be set as 3 if the growth of the target is normal and consistent with that of the blank control)
same,Fungicidal activity (antibacterial rate grade) Botrytis cinerea,Botrytis cinerea; 25 mg/L,3 (The antibacterial rate of 0˜30% could be set as 3 if the growth of the target is normal and consistent with that of the blank control)
same,Fungicidal activity (antibacterial rate grade) Botrytis cinerea,Botrytis cinerea; 50 mg/L,3 (The antibacterial rate of 0˜30% could be set as 3 if the growth of the target is normal and consistent with that of the blank control)
same,Fungicidal activity (antibacterial rate grade) Botrytis cinerea,Botrytis cinerea; 100 mg/L,3 (The antibacterial rate of 0˜30% could be set as 3 if the growth of the target is normal and consistent with that of the blank control)
same,Fungicidal activity (antibacterial rate grade) Leptosphaeria biglobosa,Leptosphaeria biglobosa; 12.5 mg/L,9 (The antibacterial rate of 90˜100% could be set as 9 if the target has totally no growth)
same,Fungicidal activity (antibacterial rate grade) Leptosphaeria biglobosa,Leptosphaeria biglobosa; 25 mg/L,9 (The antibacterial rate of 90˜100% could be set as 9 if the target has totally no growth)
same,Fungicidal activity (antibacterial rate grade) Leptosphaeria biglobosa,Leptosphaeria biglobosa; 50 mg/L,9 (The antibacterial rate of 90˜100% could be set as 9 if the target has totally no growth)
same,Fungicidal activity (antibacterial rate grade) Leptosphaeria biglobosa,Leptosphaeria biglobosa; 100 mg/L,9 (The antibacterial rate of 90˜100% could be set as 9 if the target has totally no growth)
same,Fungicidal activity (antibacterial rate grade) Alternaria kikuchiana,Alternaria kikuchiana; 12.5 mg/L,3 (The antibacterial rate of 0˜30% could be set as 3 if the growth of the target is normal and consistent with that of the blank control)
same,Fungicidal activity (antibacterial rate grade) Alternaria kikuchiana,Alternaria kikuchiana; 25 mg/L,3 (The antibacterial rate of 0˜30% could be set as 3 if the growth of the target is normal and consistent with that of the blank control)
same,Fungicidal activity (antibacterial rate grade) Alternaria kikuchiana,Alternaria kikuchiana; 50 mg/L,3 (The antibacterial rate of 0˜30% could be set as 3 if the growth of the target is normal and consistent with that of the blank control)
same,Fungicidal activity (antibacterial rate grade) Alternaria kikuchiana,Alternaria kikuchiana; 100 mg/L,3 (The antibacterial rate of 0˜30% could be set as 3 if the growth of the target is normal and consistent with that of the blank control)
same,Fungicidal activity (antibacterial rate grade) Corynespora leaf spot of tomato,[3]; 12.5 mg/L,3 (The antibacterial rate of 0˜30% could be set as 3 if the growth of the target is normal and consistent with that of the blank control)
same,Fungicidal activity (antibacterial rate grade) Corynespora leaf spot of tomato,[3]; 25 mg/L,3 (The antibacterial rate of 0˜30% could be set as 3 if the growth of the target is normal and consistent with that of the blank control)
same,Fungicidal activity (antibacterial rate grade) Corynespora leaf spot of tomato,[3]; 50 mg/L,7 (The antibacterial rate of 70˜90% could be set as 7 if the target has small amounts of growth)
same,Fungicidal activity (antibacterial rate grade) Corynespora leaf spot of tomato,[3]; 100 mg/L,7 (The antibacterial rate of 70˜90% could be set as 7 if the target has small amounts of growth)
same,Fungicidal activity (antibacterial rate grade) Rhizoctonia solani,Rhizoctonia solani; 12.5 mg/L,3 (The antibacterial rate of 0˜30% could be set as 3 if the growth of the target is normal and consistent with that of the blank control)
same,Fungicidal activity (antibacterial rate grade) Rhizoctonia solani,Rhizoctonia solani; 25 mg/L,3 (The antibacterial rate of 0˜30% could be set as 3 if the growth of the target is normal and consistent with that of the blank control)
same,Fungicidal activity (antibacterial rate grade) Rhizoctonia solani,Rhizoctonia solani; 50 mg/L,3 (The antibacterial rate of 0˜30% could be set as 3 if the growth of the target is normal and consistent with that of the blank control)
same,Fungicidal activity (antibacterial rate grade) Rhizoctonia solani,Rhizoctonia solani; 100 mg/L,3 (The antibacterial rate of 0˜30% could be set as 3 if the growth of the target is normal and consistent with that of the blank control)
same,Fungicidal activity (antibacterial rate grade) Colletotrichum gloeobosporioids,[4]; 12.5 mg/L,9 (The antibacterial rate of 90˜100% could be set as 9 if the target has totally no growth)
same,Fungicidal activity (antibacterial rate grade) Colletotrichum gloeobosporioids,[4]; 25 mg/L,9 (The antibacterial rate of 90˜100% could be set as 9 if the target has totally no growth)
same,Fungicidal activity (antibacterial rate grade) Colletotrichum gloeobosporioids,[4]; 50 mg/L,9 (The antibacterial rate of 90˜100% could be set as 9 if the target has totally no growth)
same,Fungicidal activity (antibacterial rate grade) Colletotrichum gloeobosporioids,[4]; 100 mg/L,9 (The antibacterial rate of 90˜100% could be set as 9 if the target has totally no growth)
same,Fungicidal activity (antibacterial rate grade) Pythium aphanidematum,Pythium aphanidermatum; 12.5 mg/L,3 (The antibacterial rate of 0˜30% could be set as 3 if the growth of the target is normal and consistent with that of the blank control)
same,Fungicidal activity (antibacterial rate grade) Pythium aphanidematum,Pythium aphanidermatum; 25 mg/L,3 (The antibacterial rate of 0˜30% could be set as 3 if the growth of the target is normal and consistent with that of the blank control)
same,Fungicidal activity (antibacterial rate grade) Pythium aphanidematum,Pythium aphanidermatum; 50 mg/L,3 (The antibacterial rate of 0˜30% could be set as 3 if the growth of the target is normal and consistent with that of the blank control)
same,Fungicidal activity (antibacterial rate grade) Pythium aphanidematum,Pythium aphanidermatum; 100 mg/L,3 (The antibacterial rate of 0˜30% could be set as 3 if the growth of the target is normal and consistent with that of the blank control)
same,Fungicidal activity (antibacterial rate grade) Magnaporthe oryzae,Magnaporthe oryzae; 12.5 mg/L,9 (The antibacterial rate of 90˜100% could be set as 9 if the target has totally no growth)
same,Fungicidal activity (antibacterial rate grade) Magnaporthe oryzae,Magnaporthe oryzae; 25 mg/L,9 (The antibacterial rate of 90˜100% could be set as 9 if the target has totally no growth)
same,Fungicidal activity (antibacterial rate grade) Magnaporthe oryzae,Magnaporthe oryzae; 50 mg/L,9 (The antibacterial rate of 90˜100% could be set as 9 if the target has totally no growth)
same,Fungicidal activity (antibacterial rate grade) Magnaporthe oryzae,Magnaporthe oryzae; 100 mg/L,9 (The antibacterial rate of 90˜100% could be set as 9 if the target has totally no growth)
